Among the data in DBAASP are MIC values, retold here.

Assay in all cases: ≥ marks a high value that may be exact or a test limit, other limits are often not marked, values filed in µg/mL are converted to µM
Assay [1] deals with Escherichia coli ATCC 25726.
For assay [2], the system named is Staphylococcus aureus ATCC 25923.
Assay [3] concerns Candida albicans ATCC 2002.
Assay [4] deals with Pseudomonas aeruginosa CMCCB 10104.
The subject of assay [5] is Escherichia coli ATCC 25922.
Assay [6] relates to Bacillus subtilis KCTC 3068.
Assay [7] deals with Staphylococcus epidermidis KCTC 1917.
Assay [8] concerns Escherichia coli KCTC 1682.
The subject of assay [9] is Salmonella typhimurium KCTC 1926.
Assay [10] deals with Pseudomonas aeruginosa KCTC 1637.
In assay [11] the test system is Staphylococcus aureus KCTC 1621.
For assay [12], the system named is Bacillus subtilis ATCC 6633.
Assay [13] relates to Pseudomonas aeruginosa ATCC 27853.
For another assay, the system named is Escherichia coli UB1005.
In assay [14] the test system is Enterococcus faecalis ATCC 29212.
The test system of assay [15] is Staphylococcus epidermidis C621.
Assay [16] concerns Escherichia coli ATCC 11775.

In brackets after ≈: the same amount, converted by molar mass.

By MIC is commonly meant the lowest concentration that inhibits growth of the organism. Higher therefore signals a less susceptible organism. With `CC[C@H](C)[C@H](NC(=O)[C@@H]1CCCN1C(=O)[C@H](CC(C)C)NC(=O)[C@@H](N)Cc1ccccc1)C(=O)N[C@@H](CC(C)C)C(=O)NCC(=O)N[C@@H](CC(N)=O)C(=O)N[C@@H](CC(C)C)C(=O)N[C@@H](CC(C)C)C(=O)N[C@@H](CO)C(=O)NCC(=O)N[C@@H](CC(C)C)C(=O)N[C@@H](CC(C)C)C(N)=O` [FLPILGNLLSGLL], the minimum inhibitory concentration (MIC) is no less than 100 µM in [1] and 50 µM (≈ 68.4 µg/mL) in assay [2].

Consider `CC[C@H](C)[C@H](NC(=O)[C@H](CC(C)C)NC(=O)[C@H](CCC(N)=O)NC(=O)[C@@H](NC(=O)[C@H](C)NC(=O)CNC(=O)[C@H](CCCCN)NC(=O)[C@@H](NC(=O)[C@H](CC(C)C)NC(=O)[C@@H](NC(=O)[C@H](Cc1ccccc1)NC(=O)[C@@H](NC(=O)CN)C(C)C)[C@@H](C)O)[C@@H](C)CC)[C@@H](C)O)C(=O)NCC(=O)N[C@@H](CCCCN)C(=O)N[C@H](C(=O)N[C@@H](CC(C)C)C(=O)NCC(=O)N[C@@H](CCCCN)C(=O)N[C@@H](CCC(=O)O)C(=O)N[C@@H](CC(C)C)C(=O)NCC(=O)N[C@@H](CCCCN)C(=O)N[C@H](C(=O)NCC(=O)N[C@@H](CC(C)C)C(=O)N[C@@H](CCC(=O)O)C(=O)N[C@@H](CC(C)C)C(=O)N[C@@H](CCSC)C(=O)N[C@@H](C)C(=O)N[C@H]1CSSC[C@@H](C(=O)O)NC(=O)[C@H](CCC(N)=O)NC(=O)[C@H](CCC(=O)O)NC(=O)[C@H]([C@@H](C)O)NC(=O)[C@H]([C@@H](C)CC)NC(=O)[C@H](CCCCN)NC1=O)[C@@H](C)O)[C@@H](C)O` [GVFTLIKGATQLIGKTLGKELGKTGLELMACKITEQC], for which the MIC in assay [3], in assay [4], in assay [5] and in [2] was 0.924 µM (≈ 3.6 µg/mL) in each case.

Consider `CC[C@H](C)[C@H](NC(=O)[C@H](CCC(=O)O)NC(=O)[C@H](CO)NC(=O)[C@@H](NC(=O)[C@H](CC(C)C)NC(=O)[C@H](C)NC(=O)[C@H](CCC(N)=O)NC(=O)CNC(=O)[C@H](Cc1ccccc1)NC(=O)[C@H](CCCCN)NC(=O)[C@H](CCCCN)NC(=O)[C@H](C)NC(=O)[C@H](CO)NC(=O)[C@H](Cc1cnc[nH]1)NC(=O)[C@H](CC(C)C)NC(=O)[C@H](Cc1ccccc1)NC(=O)[C@H](CCCCN)NC(=O)CNC(=O)[C@@H](NC(=O)CN)C(C)C)C(C)C)C(=O)N[C@@H](CCSC)C(=O)N[C@@H](CCCCN)C(=O)N[C@@H](CO)C(=O)O` [GVGKFLHSAKKFGQALVSEIMKS], for which the MIC was no less than 50 µM in assay [1] and greater than 100 µM in assay [2].

As to `CC[C@H](C)[C@H](N)C(=O)N[C@@H](CC(C)C)C(=O)N[C@@H](CCCCN)C(=O)N[C@@H](Cc1c[nH]c2ccccc12)C(=O)N[C@@H](CCCCN)C(=O)N[C@@H](Cc1c[nH]c2ccccc12)C(=O)N[C@@H](CCCCN)C(=O)N[C@@H](Cc1c[nH]c2ccccc12)C(=O)N[C@@H](Cc1c[nH]c2ccccc12)C(=O)N1CCC[C@H]1C(=O)N[C@@H](Cc1c[nH]c2ccccc12)C(=O)N[C@@H](CCCN=C(N)N)C(=O)N[C@@H](CCCN=C(N)N)C(N)=O` [ILKWKWKWWPWRR], the MIC in assay [6], in assay [7], in assay [8], in assay [9], in assay [10] and in assay [11] was 5.08 µM (≈ 10 µg/mL) each time.

For `CC[C@H](C)[C@H](N)C(=O)N[C@@H](CC(C)C)C(=O)N[C@@H](CCCCN)C(=O)N[C@@H](Cc1c[nH]c2ccccc12)C(=O)N[C@@H](CCCCN)C(=O)N[C@@H](Cc1c[nH]c2ccccc12)C(=O)N1CCC[C@H]1C(=O)N[C@@H](Cc1c[nH]c2ccccc12)C(=O)N[C@@H](Cc1c[nH]c2ccccc12)C(=O)N[C@@H](CCCCN)C(=O)N[C@@H](Cc1c[nH]c2ccccc12)C(=O)N[C@@H](CCCN=C(N)N)C(=O)N[C@@H](CCCN=C(N)N)C(N)=O` [ILKWKWPWWKWRR], the MIC in assay [6] worked out at 2.54 µM (≈ 5 µg/mL); in [7], 5.08 µM (≈ 10 µg/mL); in [8] it was 5.08 µM (≈ 10 µg/mL); in assay [9], 5.08 µM (≈ 10 µg/mL); in assay [10], 5.08 µM (≈ 10 µg/mL); in [11], 2.54 µM (≈ 5 µg/mL).

For the molecule `CC[C@H](C)[C@H](N)C(=O)N[C@@H](CC(N)=O)C(=O)N1CCC[C@H]1C(=O)N[C@@H](Cc1ccccc1)C(=O)N[C@H](C(=O)N[C@@H](C)C(=O)NCC(=O)N[C@H](C(=O)N[C@@H](C)C(=O)N[C@@H](C)C(=O)N[C@@H](CCC(=O)O)C(=O)N[C@@H](CCSC)C(=O)N[C@@H](CCSC)C(=O)N[C@@H](CCC(N)=O)C(=O)N[C@@H](Cc1cnc[nH]1)C(=O)N[C@H](C(=O)N[C@@H](Cc1ccc(O)cc1)C(=O)N[C@H]1CSSC[C@@H](C(=O)O)NC(=O)[C@H](CCCCN)NC(=O)[C@H](CCCCN)NC(=O)[C@H](CO)NC(=O)[C@H](C)NC(=O)[C@H](C)NC1=O)C(C)C)C(C)C)C(C)C` [INPFVAGVAAEMMQHVYCAASKKC], the MIC in assay [3], in assay [4], in assay [5] and in assay [2] was 3.35 µM (≈ 8.59 µg/mL) in each case.

On to `CC[C@H](C)[C@H](NC(=O)[C@H](CCCCN)NC(=O)[C@H](CCCCN)NC(=O)[C@H](Cc1ccccc1)NC(=O)[C@H](CC(C)C)NC(=O)[C@H](CCCCN)NC(=O)[C@H](C)NC(=O)[C@@H](N)CCCCN)C(=O)N1CCC[C@H]1C(=O)N[C@@H](CCCCN)C(=O)N[C@@H](Cc1ccccc1)C(=O)N[C@@H](CC(C)C)C(=O)N[C@@H](Cc1cnc[nH]1)C(=O)N[C@@H](CC(C)C)C(=O)N[C@@H](Cc1c[nH]c2ccccc12)C(=O)N[C@@H](CCCCN)C(=O)N[C@@H](CCCCN)C(=O)N[C@@H](Cc1ccccc1)C(N)=O` [KAKLFKKIPKFLHLWKKF], for which the MIC in assay [6] was 2 µM (≈ 4.6 µg/mL); in [7] it was 1 µM (≈ 2.3 µg/mL); in [8] it was 2 µM (≈ 4.6 µg/mL); in [9], 1 µM (≈ 2.3 µg/mL); in assay [10], 1 µM (≈ 2.3 µg/mL); in assay [11] it was 2 µM (≈ 4.6 µg/mL).

As to `C[C@H](NC(=O)[C@H](C)NC(=O)[C@H](Cc1ccccc1)NC(=O)[C@H](C)NC(=O)[C@H](C)NC(=O)[C@H](Cc1ccccc1)NC(=O)[C@H](C)NC(=O)[C@H](C)NC(=O)[C@H](Cc1ccccc1)NC(=O)[C@H](C)NC(=O)[C@H](C)NC(=O)[C@H](CCCCN)NC(=O)[C@H](CCCCN)NC(=O)[C@H](CCCCN)NC(=O)[C@H](CCCCN)NC(=O)[C@H](CCCCN)NC(=O)[C@@H](N)CCCCN)C(N)=O` [KKKKKKAAFAAFAAFAA], the MIC in assay [12] is 16 µM (≈ 28.7 µg/mL); in assay [13], 16 µM (≈ 28.7 µg/mL); in assay [5] it was 16 µM (≈ 28.7 µg/mL); with Escherichia coli UB1005, 2 µM (≈ 3.59 µg/mL); in assay [2], greater than 32 µM; in assay [14] it was greater than 32 µM. The minimal inhibitory concentration (MIC) in assay [15] amounted to 8 µM (≈ 14.4 µg/mL).

`NCCCC[C@H](NC(=O)[C@H](Cc1c[nH]c2ccccc12)NC(=O)[C@H](CCC(N)=O)NC(=O)[C@H](Cc1c[nH]c2ccccc12)NC(=O)[C@H](CCCCN)NC(=O)[C@@H](N)CCCCN)C(=O)O` [KKWQWK]: the MIC in [16] was 23 µM (≈ 20.8 µg/mL); in assay [13], 47 µM (≈ 42.4 µg/mL); in assay [5] it was 47 µM (≈ 42.4 µg/mL); in assay [2] it was 47 µM (≈ 42.4 µg/mL).

In the case of `CC[C@H](C)[C@H](NC(=O)[C@H](CC(C)C)NC(=O)[C@H](CCCCN)NC(=O)[C@@H](NC(=O)[C@@H](NC(=O)[C@H](CCCN=C(N)N)NC(=O)[C@@H](N)CC(C)C)[C@@H](C)CC)C(C)C)C(=O)N[C@@H](CC(C)C)C(=O)N[C@@H](CCCCN)C(=O)N[C@@H](Cc1c[nH]c2ccccc12)C(=O)N[C@@H](CC(C)C)C(=O)N[C@@H](CCCN=C(N)N)C(N)=O` [LRIVKLILKWLR], the minimum inhibitory concentration (MIC) in assay [6] turned out to be 8 µM (≈ 12.4 µg/mL); in assay [7] it was 2 µM (≈ 3.1 µg/mL); in assay [8] it was 16 µM (≈ 24.8 µg/mL); in [9], 4 µM (≈ 6.2 µg/mL); in assay [10] it was 16 µM (≈ 24.8 µg/mL); in assay [11], 4 µM (≈ 6.2 µg/mL).

As to `CC[C@H](C)[C@H](NC(=O)[C@H](CCCN=C(N)N)NC(=O)[C@H](CC(C)C)NC(=O)[C@H](CC(C)C)NC(=O)[C@@H](N)CCCN=C(N)N)C(=O)N[C@@H](Cc1c[nH]c2ccccc12)C(=O)N[C@@H](Cc1c[nH]c2ccccc12)C(=O)N[C@H](C(=O)N[C@@H](CCCN=C(N)N)C(=O)N[C@H](C(=O)N[C@@H](CC(C)C)C(=O)N[C@@H](CCCN=C(N)N)C(N)=O)C(C)C)[C@@H](C)CC` [RLLRIWWIRVLR], the MIC in assay [6] amounted to 7.44 µM (≈ 12.5 µg/mL); in assay [7], 3.72 µM (≈ 6.25 µg/mL); in assay [8], 14.9 µM (≈ 25 µg/mL); in assay [9] it was 1.86 µM (≈ 3.13 µg/mL); in assay [10] it was 3.72 µM (≈ 6.25 µg/mL); in assay [11] it was 7.44 µM (≈ 12.5 µg/mL).

For `CC(C)[C@H](N)C(=O)N[C@H](C(=O)N[C@@H](CCCCN)C(=O)N[C@@H](CS)C(=O)N[C@@H](CO)C(=O)N[C@@H](Cc1ccc(O)cc1)C(=O)N[C@@H](CCCN=C(N)N)C(=O)N[C@@H](CCC(N)=O)C(=O)NCC(=O)N[C@@H](CO)C(=O)N1CCC[C@H]1C(=O)N[C@@H](CC(=O)O)C(=O)N[C@@H](CO)C(=O)N[C@@H](CCCN=C(N)N)C(=O)O)C(C)C` [VVKCSYRQGSPDSR], the MIC in [3] is no less than 126 µM; in [4], no less than 126 µM; in [5], greater than 126 µM; in assay [2], greater than 126 µM.
